Assay results: patent publication US20250214942A1, “INHIBITORS OF RECEPTOR INTERACTING PROTEIN KINASE I FOR THE TREATMENT OF DISEASE” (Board of Regents, The University of Texas System, priority 2019, published 2025)
“And” between values parts separate entries of the source, which are not always exact repeats. Equal values may be shown once.

Molecular target: RIPK1 (Homo sapiens (Human), UniProt Q13546)
Experiment: ADP-Glo kinase assay (RIPK1 activity, conversion of ATP to ADP)
Format: biochemical
Conditions: 5 nM RIPK1, 50 μM ATP, 6 h reaction; footnote symbol (a); read-out: RIPK1 Enzyme Avg IC50
Method: In order to measure RIPK1 activity the ADP-Glo kinase assay (Promega, Catalog #V7002) was used to measure the conversion of ATP to ADP. This enzymatic assay was performed in a 384-well white, Optiplate (Perkin Elmer, Catalog #6007299) with assay buffer consisting of 50 mM HEPES pH 7.5 (Gibco, Catalog #15630-080), 50 mM NaCl (Teknova, Catalog #S0252), 30 mM MgCl2 (Ambion, Catalog #AM9530G), 1 mM DTT (Santa Cruz Biotechnology, Catalog #sc-29089), 0.05% BSA (Sigma, Catalog #A3059-50G) and 0.02% CHAPS (Sigma, Catalog #C5070-5G). Stock solutions of the test compounds were prepared in 100% DMSO (Sigma, Catalog #D2650) and serially diluted 1:3 using 100% DMSO. Compounds were additionally diluted 1:40 in assay buffer, and 2 μL/well were transferred to the assay plate. 4 μL/well (final concentration of 5 nM) of RIPK1 protein (SignalChem, Catalog #R07-1IG-05) diluted in assay buffer and added to the assay plate followed by a 10 minute preincutation at rt. 4 μL/well of ATP (Promega, Catalog #V7002) (final concentration of 50 μM) diluted in assay buffer were then added to the assay plate followed by a 6 h reaction time. Final concentrations of RIPK1 and ATP refer to a 10 μL volume. Luminescence was measured using a BioTek Synergy™ NEO plate reader. IC50 values were calculated using a four-parameter logistic curve fit using Genedata Screener software.

Chain of RIPK1 (Q13546 1-327): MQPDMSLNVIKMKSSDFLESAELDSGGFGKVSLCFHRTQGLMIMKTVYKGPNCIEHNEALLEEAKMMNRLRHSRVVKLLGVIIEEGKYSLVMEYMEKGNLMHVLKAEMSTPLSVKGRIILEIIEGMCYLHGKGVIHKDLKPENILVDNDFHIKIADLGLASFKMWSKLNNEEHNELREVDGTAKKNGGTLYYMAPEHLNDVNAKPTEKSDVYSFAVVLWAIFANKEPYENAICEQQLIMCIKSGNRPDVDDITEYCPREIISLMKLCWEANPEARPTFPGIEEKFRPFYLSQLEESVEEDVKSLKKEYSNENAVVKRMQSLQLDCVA

Row | Compound | IC50 [nM]
1 | C[C@H](NC(=O)C12CC(CO)(C1)C2)c1cc(F)cc(F)c1 [Example 90, (S)-N-(1-(3,5-difluoro-phenyl)ethyl)-3-(hydroxymethyl)-bicyclo[1.1.1]pentane-1-carboxamide] | > 50000
2 | O=C(NCc1cc(F)cc(F)c1)C12CC(CO)(C1)C2 [Example 91, N-(3,5-difluorobenzyl)-3-(hydroxymethyl)bicyclo-[1.1.1]pentane-1-carboxamide] | > 50000
3 | COC(=O)C12CC(C(=O)N[C@@H](C)c3cc(F)cc(F)c3)(C1)C2 [Example 115, methyl (S)-3-((1-(3,5-difluorophenyl)ethyl)-carbamoyl)bicyclo[1.1.1]-pentane-1-carboxylate] | > 50000
4 | N#CC12CC(C(=O)N3CCC(Oc4ccccc4)C3)(C1)C2 (stereo not drawn) [Example 116, 3-(3-phenoxypyrrolidine-1-carbonyl)bicyclo[1.1.1]-pentane-1-carbonitrile] | > 50000
5 | COC(=O)C12CC(C(=O)NCc3cc(F)cc(F)c3)(C1)C2 [Example 121, methyl 3-((3,5-difluoro-benzyl)carbamoyl)-bicyclo[1.1.1]pentane-1-carboxylate] | > 50000

Results, then the compound that gave them:

Row | IC50 [nM] | Compound
6 | > 50000 | Cc1cccc(C2CCCN2C(=O)C23CC(Nc4nccc(C#N)n4)(C2)C3)c1 (stereo not drawn) [Example 105, 2-((3-(2-(m-tolyl)pyrrolidine-1-carbonyl)bicyclo[1.1.1]-pentan-1-yl)amino)-pyrimidine-4-carbonitrile]
7 | > 50000 | Cc1cccc(C2CCCN2C(=O)C23CC(NC(=O)c4ccccc4)(C2)C3)c1 (stereo not drawn) [Example 117, N-(3-(2-(m-tolyl)pyrrolidine-1-carbonyl)bicyclo[1.1.1]-pentan-1-yl)benzamide]
8 | > 50000 | CCC(=O)NC12CC(C(=O)N3CCCC3c3cccc(C)c3)(C1)C2 (stereo not drawn) [Example 118, N-(3-(2-(m-tolyl)pyrrolidine-1-carbonyl)bicyclo[1.1.1]-pentan-1-yl)propionamide]
9 | > 50000 | CC(=O)NC12CC(C(=O)N3CCCC3c3cccc(C)c3)(C1)C2 (stereo not drawn) [Example 119, N-(3-(2-(m-tolyl)pyrrolidine-1-carbonyl)bicyclo[1.1.1]-pentan-1-yl)acetamide]
10 | > 50000 | Cc1cccc(C2CCCN2C(=O)C23CC(O)(C2)C3)c1 (stereo not drawn) [Example 120, (3-hydroxybicyclo[1.1.1]-pentan-1-yl)(2-(m-tolyl)-pyrrolidin-1-yl)methanone]

Same assay, conditions: 5 nM RIPK1, 50 μM ATP, 6 h reaction; read-out: RIPK1 Enzyme Avg IC50

Row | Compound | IC50
11 | CS(=O)(=O)C1CN(CC23CC(C(=O)N4N=CCC4c4cc(F)cc(F)c4)(C2)C3)C1 (stereo not drawn) [Example 80, (5-(3,5-difluorophenyl)-4,5-dihydro-1H-pyrazol-1-yl)(3-((3-(methylsulfonyl)azetidin-1-yl)methyl)bicyclo[1.1.1]-pentan-1-yl)methanone] | 24700 nM
12 | O=C(N1N=CCC1c1cc(F)cc(F)c1)C12CC(Cn3nc4ccccc4n3)(C1)C2 (stereo not drawn) [Example 86, (3-((2H-benzo[d][1,2,3]-triazol-2-yl)methyl)bicyclo-[1.1.1]pentan-1-yl)(5-(3,5-difluorophenyl)-4,5-dihydro-1H-pyrazol-1-yl)methanone] | 19 nM
13 | C[C@H](NC(=O)C12CC(COc3cc(C#N)ncn3)(C1)C2)c1cc(F)cc(F)c1 [Example 102, (S)-3-(((6-cyanopyrimidin-4-yl)oxy)methyl)-N-(1-(3,5-difluorophenyl)ethyl)-bicyclo[1.1.1]pentane-1-carboxamide] | 2000 nM
14 | O=C(N1CC(F)CC1c1cccc(F)c1)C12CC(COc3cccc4nncn34)(C1)C2 (stereo not drawn) [Example 103, (3-(([1,2,4]triazolo[4,3-a]-pyridin-5-yloxy)methyl)-bicyclo[1.1.1]pentan-1-yl)(4-fluoro-2-(3-fluorophenyl)-pyrrolidin-1-yl)methanone] | 2660 nM
15 | N#Cc1cc(OCC23CC(C(=O)NCc4cc(F)cc(F)c4)(C2)C3)ncn1 [Example 104, 3-(((6-cyanopyrimidin-4-yl)oxy)methyl)-N-(3,5-difluorobenzyl)bicyclo-[1.1.1]pentane-1-carboxamide] | 3050 nM
16 | O=C(N1CCC(Oc2ccccc2)C1)C12CC(F)(C1)C2 (stereo not drawn) [Example 114, (3-fluorobicyclo[1.1.1]-pentan-1-yl)(3-phenoxypyrrolidin-1-yl)methanone] | > 16700 nM and 8900 nM
17 | N#Cc1cncn1CC12CC(C(=O)N3N=CCC3c3cc(F)cc(F)c3)(C1)C2 (stereo not drawn) [Example 123, 1-((3-(5-(3,5-difluorophenyl)-4,5-dihydro-1H-pyrazole-1-carbonyl)bicyclo[1.1.1]-pentan-1-yl)methyl)-1H-imidazole-5-carbonitrile] | 501 nM
18 | O=C(N1N=CCC1c1cc(F)cc(F)c1)C12CC(CN3C(=O)C4(CC4)c4ccccc43)(C1)C2 (stereo not drawn) [Example 125, 1′-((3-(5-(3,5-difluorophenyl)-4,5-dihydro-1H-pyrazole-1-carbonyl)-bicyclo[1.1.1]pentan-1-yl)methyl)-spiro[cyclopropane-1,3′-indolin]-2′-one] | 2800 nM
19 | COCc1cn(CC23CC(C(=O)N4N=CCC4c4cc(F)cc(F)c4)(C2)C3)nn1 (stereo not drawn) [Example 149, (5-(3,5-difluorophenyl)-4,5-dihydro-1H-pyrazol-1-yl)(3-((4-(methoxymethyl)-1H-1,2,3-triazol-1-yl)methyl)-bicyclo[1.1.1]pentan-1-yl)methanone] | 3930 nM
20 | O=C(N1N=CCC1c1cc(F)cc(F)c1)C12CC(Cn3cc(CO)nn3)(C1)C2 (stereo not drawn) [Example 150, (5-(3,5-difluorophenyl)-4,5-dihydro-1H-pyrazol-1-yl)(3-((4-(hydroxymethyl)-1H-1,2,3-triazol-1-yl)methyl)-bicyclo[1.1.1]pentan-1-yl)methanone] | 5460 nM
21 | O=C(N1N=CCC1c1cc(F)cc(F)c1)C12CC(CN3CC(c4ccccc4)C3)(C1)C2 (stereo not drawn) [Example 154, (5-(3,5-difluorophenyl)-4,5-dihydro-1H-pyrazol-1-yl)(3-((3-phenylazetidin-1-yl)-methyl)bicyclo[1.1.1]pentan-1-yl)methanone] | 4860 nM
22 | N#Cc1ccc2c(cnn2CC23CC(C(=O)N4N=CCC4c4cc(F)cc(F)c4)(C2)C3)n1 (stereo not drawn) [Example 179] | 9.6 nM
23 | N#Cc1ccc2nn(CC34CC(C(=O)N5N=CCC5c5cc(F)cc(F)c5)(C3)C4)cc2n1 (stereo not drawn) [Example 180, 2-((3-(5-(3,5-difluorophenyl)-4,5-dihydro-1H-pyrazole-1-carbonyl)bicyclo[1.1.1]-pentan-1-yl)methyl)-2H-pyrazolo[4,3-b]pyridine-5-carbonitrile] | 392 nM

Continued, values first:

Row | IC50 | Compound
24 | 151 nM | NC(=O)c1ccnc(OCC23CC(C(=O)N4CC(F)CC4c4cccc(F)c4)(C2)C3)n1 (stereo not drawn) [Example 95, 2-((3-(4-fluoro-2-(3-fluoro-phenyl)pyrrolidine-1-carbonyl)bicyclo[1.1.1]-pentan-1-yl)methoxy)-pyrimidine-4-carboxamide]
25 | 162 nM | N#Cc1cncc(OCC23CC(C(=O)N4CC(F)CC4c4cccc(F)c4)(C2)C3)n1 (stereo not drawn) [Example 96, 6-((3-(4-fluoro-2-(3-fluoro-phenyl)pyrrolidine-1-carbonyl)bicyclo[1.1.1]-pentan-1-yl)methoxy)-pyrazine-2-carbonitrile]
26 | 219 nM | O=C(N1CC(F)CC1c1cccc(F)c1)C12CC(COc3ncc(F)cn3)(C1)C2 (stereo not drawn) [Example 97, (4-fluoro-2-(3-fluorophenyl)-pyrrolidin-1-yl)(3-(((5-fluoropyrimidin-2-yl)oxy)-methyl)bicyclo[1.1.1]pentan-1-yl)methanone]
27 | 240 nM | NC(=O)c1cc(OCC23CC(C(=O)N4CC(F)CC4c4cccc(F)c4)(C2)C3)ncn1 (stereo not drawn) [Example 98, 6-((3-(4-fluoro-2-(3-fluorophenyl)pyrrolidine-1-carbonyl)bicyclo[1.1.1]-pentan-1-yl)methoxy)-pyrimidine-4-carboxamide]
28 | 280 nM | N#Cc1cc(OCC23CC(C(=O)N4CC(F)CC4c4cccc(F)c4)(C2)C3)ccn1 (stereo not drawn) [Example 99, 4-((3-(4-fluoro-2-(3-fluorophenyl)pyrrolidine-1-carbonyl)bicyclo[1.1.1]-pentan-1-yl)methoxy)-picolinonitrile]
29 | 284 nM | N#Cc1cnc(OCC23CC(C(=O)N4CC(F)CC4c4cccc(F)c4)(C2)C3)nc1 (stereo not drawn) [Example 100, 2-((3-(4-fluoro-2-(3-fluorophenyl)pyrrolidine-1-carbonyl)bicyclo[1.1.1]-pentan-1-yl)methoxy)-pyrimidine-5-carbonitrile]
30 | 183 nM | N#Cc1cccc(OCC23CC(C(=O)N4CC(F)CC4c4cccc(F)c4)(C2)C3)c1 (stereo not drawn) [Example 107, 3-((3-(4-fluoro-2-(3-fluoro-phenyl)pyrrolidine-1-carbonyl)bicyclo[1.1.1]-pentan-1-yl)methoxy)-benzonitrile]
31 | 206 nM | Cc1cccc(OCC23CC(C(=O)N4CC(F)CC4c4cccc(F)c4)(C2)C3)c1 (stereo not drawn) [Example 108, (4-fluoro-2-(3-fluorophenyl)-pyrrolidin-1-yl)(3-((m-tolyloxy)methyl)bicyclo-[1.1.1]pentan-1-yl)methanone]
32 | 4230 nM | Cc1cccc(C2CCCN2C(=O)C23CC(C2)C3)c1 (stereo not drawn) [Example 113, bicyclo[1.1.1]pentan-1-yl(2-(m-tolyl)pyrrolidin-1-yl)methanone]
33 | 998 nM | CCOC12CC(C(=O)N3CCCC3c3cccc(C)c3)(C1)C2 (stereo not drawn) [Example 122, (3-ethoxybicyclo[1.1.1]-pentan-1-yl)(2-(m-tolyl)-pyrrolidin-1-yl)methanone]
